A short description of data set [1]: AUClast in Sprague-Dawley rat at 3 ml/kg,po measured upto 24 hrs by UPLC-MS/MS analysis. It counts as ADME. Also noted: time < 24 hrs, dose 3 ml/kg, route po. To be noted: in vivo; for AUClast: 24 h.
Data set [2] can be described thus: Ratio of AUC of Atazanavir in Sprague-Dawley rat at 3 ml/kg,po measured upto 24 hrs by UPLC-MS/MS analysis. The class given is ADME. To be noted: in vivo.
A short description of data set [3]: Aqueous solubility of compound at pH 4 by UPLC analysis. It counts as physicochemical.
A short description of data set [4]: Half life in Sprague-Dawley rat at 1 ml/kg,iv measured upto 24 hrs by UPLC-MS/MS analysis. It counts as ADME. To be noted: in vivo.
Data set [5] can be described thus: Fold ratio of total AUC of Atazanavir in Sprague-Dawley rat at 3 ml/kg,po measured upto 24 hrs by UPLC-MS/MS analysis. It counts as ADME. Particulars: in vivo.
Data set [6] can be described thus: Ratio of Cmax/Cmin of Atazanavir in Sprague-Dawley rat at 3 ml/kg,po measured after 24 hrs by UPLC-MS/MS analysis. The class given is ADME. Particulars: in vivo.
Data set [7] in a line: Tmax in Sprague-Dawley rat at 3 ml/kg,po measured upto 24 hrs by UPLC-MS/MS analysis. It counts as ADME. To be noted: in vivo.
Data set [8] is described as follows: AUClast in Sprague-Dawley rat at 30 ml/kg,po measured upto 24 hrs by UPLC-MS/MS analysis. The class given is ADME. Also on record: time < 24 hrs, dose 30 ml/kg, route po. Particulars: in vivo.
Data set [9] in a line: Ratio of AUC of Atazanavir in Sprague-Dawley rat at 1 ml/kg,iv measured upto 24 hrs by UPLC-MS/MS analysis. To be noted: in vivo. It counts as ADME.
Data set [10] in a line: Relative AUC ratio of Atazanavir in Sprague-Dawley rat at 30 ml/kg,po measured upto 24 hrs by UPLC-MS/MS analysis. It counts as ADME. To be noted: in vivo.
Data set [11] can be described thus: Volume of distribution at steady state in Sprague-Dawley rat at 1 ml/kg,iv measured upto 24 hrs by UPLC-MS/MS analysis. The class given is ADME. To be noted: in vivo, read-out: Vdss.
The nature of data set [12]: Relative Cmax ratio of Atazanavir in Sprague-Dawley rat at 1 ml/kg,iv measured upto 24 hrs by UPLC-MS/MS analysis. It counts as ADME. To be noted: in vivo.
Data set [13] is described as follows: AUClast in Sprague-Dawley rat at 1 ml/kg,iv measured upto 24 hrs by UPLC-MS/MS analysis. The class given is ADME. Also noted: dose 1 ml/kg, time < 24 hrs, route iv. Particulars: in vivo.
A short description of data set [14]: Ratio of AUC of Atazanavir in Sprague-Dawley rat at 30 ml/kg,po measured upto 24 hrs by UPLC-MS/MS analysis. To be noted: in vivo. It counts as ADME.
Data set [15] can be described thus: Relative Cmax ratio of Atazanavir in Sprague-Dawley rat at 30 ml/kg,po measured upto 24 hrs by UPLC-MS/MS analysis. It counts as ADME. Particulars: in vivo.
The nature of data set [16]: Aqueous stability of the compound in phosphate buffer at pH 6.5 assessed as compound half life measured after 24 hrs by UPLC analysis. The class given is physicochemical. Particulars: for t1/2: buffer, pH 6.5, 24 h, 24 h; for half-life: phosphate buffer, pH 6.5.
Data set [17] in a line: Relative Cmax ratio of Atazanavir in Sprague-Dawley rat at 3 ml/kg,po measured upto 24 hrs by UPLC-MS/MS analysis. Particulars: in vivo. The class given is ADME.
Data set [18] in a line: Relative AUC ratio of Atazanavir in Sprague-Dawley rat at 3 ml/kg,po measured upto 24 hrs by UPLC-MS/MS analysis. The class given is ADME. Particulars: in vivo.
A short description of data set [19]: Cmax in Sprague-Dawley rat at 1 ml/kg,iv measured upto 24 hrs by UPLC-MS/MS analysis. It counts as ADME. Also noted: dose 1 ml/kg, time < 24 hrs, route iv. To be noted: in vivo.
Data set [20] in a line: Ratio of Cmax/Cmin of Atazanavir in Sprague-Dawley rat at 30 ml/kg,po measured after 24 hrs by UPLC-MS/MS analysis. Particulars: in vivo. It counts as ADME.
The nature of data set [21]: Fold ratio of total AUC of Atazanavir in Sprague-Dawley rat at 1 ml/kg,iv measured upto 24 hrs by UPLC-MS/MS analysis. It counts as ADME. To be noted: in vivo.
Data set [22] in a line: Aqueous solubility of compound at pH 1 by UPLC analysis. It counts as physicochemical.
Data set [23] can be described thus: Clearance in Sprague-Dawley rat at 1 ml/kg,iv measured upto 24 hrs by UPLC-MS/MS analysis. It counts as ADME. To be noted: in vivo.
Data set [24] is described as follows: Cmax in Sprague-Dawley rat at 30 ml/kg,po measured upto 24 hrs by UPLC-MS/MS analysis. It counts as ADME. Also on record: time < 24 hrs, dose 30 ml/kg, route po. Particulars: in vivo.
Data set [25] in a line: Aqueous stability of the compound in acetate buffer at pH 4 assessed as compound half life measured after 24 hrs by UPLC analysis. It counts as physicochemical. Particulars: for t1/2: buffer, pH 4, 24 h, 24 h; for half-life: acetate buffer, pH 4.
A short description of data set [26]: Relative AUC ratio of Atazanavir in Sprague-Dawley rat at 1 ml/kg,iv measured upto 24 hrs by UPLC-MS/MS analysis. It counts as ADME. To be noted: in vivo.
Data set [27] is described as follows: Ratio of Cmax/Cmin of Atazanavir in Sprague-Dawley rat at 1 ml/kg,iv measured after 24 hrs by UPLC-MS/MS analysis. The class given is ADME. Particulars: in vivo.
Data set [28] in a line: Tmax in Sprague-Dawley rat at 30 ml/kg,po measured upto 24 hrs by UPLC-MS/MS analysis. Particulars: in vivo. It counts as ADME.
Data set [29] is described as follows: Cmax in Sprague-Dawley rat at 3 ml/kg,po measured upto 24 hrs by UPLC-MS/MS analysis. The class given is ADME. Also on record: dose 3 ml/kg, time < 24 hrs, route po. To be noted: in vivo.
A short description of data set [30]: Fold ratio of total AUC of Atazanavir in Sprague-Dawley rat at 30 ml/kg,po measured upto 24 hrs by UPLC-MS/MS analysis. It counts as ADME. Particulars: in vivo.
Data set [31] in a line: Aqueous solubility of compound at pH 6.5 by UPLC analysis. The class given is physicochemical.
A short description of data set [32]: Aqueous stability of the compound in HCL at pH 1 assessed as compound half life measured after 24 hrs by UPLC analysis. It counts as physicochemical. Particulars: aqueous HCl, pH 1.
The mark [33] stands for this setting: aqueous medium, read-out: solubility.

≈ marks a conversion by molar mass, not a printed value.

On to `COC(=O)N[C@H](C(=O)N[C@@H](Cc1ccccc1)[C@H](CN(Cc1ccc(-c2ccccn2)cc1)NC(=O)[C@@H](NC(=O)OC)C(C)(C)C)OC(=O)OC(OC(=O)[C@@H](NC(=O)[C@H](N)C(C)C)C(C)C)C(C)C)C(C)(C)C` (stereo in doubt; 6h), for which the AUC(0-t) at 24 h in [1] (Sprague-Dawley, 3 ml/kg) was 40.1 µM·h; in data set [8], 68.3 µM·h; in data set [13], 10.5 µM·h. Moreover, the Ratio in data set [2] came out at 14.4; in data set [5], 111.7; in [6], 6.4; in [9] it was 7.31; in data set [10], 0.29; in data set [12] it was 0.11. The Ratio in [14] is given as 11.46; in data set [15], 0.08; in data set [17], 1; in data set [18], 7.3; in data set [20], 5.8; in data set [21], 18.8. The Ratio was found to be 2.3 in data set [26], 22.8 in [27] and 3.56 in data set [30]. Further, the solubility in data set [3] (buffer) was greater than 1300 µg/mL; in data set [22] (buffer) it was greater than 2000 µg/mL. Also, the half-life in data set [4] was 7 h. Moreover, the Tmax in data set [7] (Sprague-Dawley, read-out: Tmax) came to 3 h; in data set [28] it was 3 h. For the same molecule, the Vd in data set [11] was 1 L/kg. In addition, the t1/2 in data set [16] came to 9.2 h; in data set [25], 334.3 h. Further, the Cmax in [19] is 2180 nM; in data set [24], 4130 nM; in data set [29] (Sprague-Dawley, 3 ml/kg), 3060 nM. Further, the clearance in [23] was found to be 2 mL/min/kg.
As for `COC(=O)N[C@H](C(=O)N[C@@H](Cc1ccccc1)[C@H](CN(Cc1ccc(-c2ccccn2)cc1)NC(=O)[C@@H](NC(=O)OC)C(C)(C)C)OC(=O)OC(OC(=O)[C@@H](NC(=O)[C@@H](N)C(C)C)C(C)C)C(C)C)C(C)(C)C` (stereo in doubt; 6e), the AUClast in data set [1] was 0.0005 µM·h. The Ratio was 0.0004 in [2]; 3.3 in [5]; 2936.7 in [6]; 3.3 in data set [17]; 3.3 in data set [18]. The values for the solubility in [3] (setting [33]), in [31] (buffer) and in [22] (setting [33]) were greater than 1100 µg/mL, 76 µg/mL (≈ 74.6 µM) and greater than 1600 µg/mL, respectively. In addition, the Tmax in data set [7] (Sprague-Dawley, read-out: Tmax) turned out to be 0.3 h. In addition, the values for the half-life in data set [16], in data set [32] and in data set [25] were 167 h, greater than 500 h and greater than 500 h, respectively. Further, the Cmax in data set [29] (24 h) was 3 nM.
In the case of `COC(=O)N[C@H](C(=O)N[C@@H](Cc1ccccc1)[C@H](CN(Cc1ccc(-c2ccccn2)cc1)NC(=O)[C@@H](NC(=O)OC)C(C)(C)C)OC(=O)OC(OC(=O)[C@H](C(C)C)N(C)C)C(C)C)C(C)(C)C` (stereo in doubt; 5g), in data set [1], the AUClast was 0.996 µM·h. Further, the Ratio in data set [2] was determined as 0.59; in data set [5] it was 7; in data set [6], 194.1; in data set [17], 2.1; in data set [18] it was 4.4. For the same molecule, the results for the solubility in [3] (setting [33]), in [31] (setting [33]) and in data set [22] (buffer) were 140 µg/mL (≈ 148 µM), less than 1 µg/mL and greater than 420 µg/mL, respectively. Moreover, in data set [7] (Sprague-Dawley, read-out: Tmax), the Tmax stood at 0.7 h. The half-life in data set [16], in data set [32] and in data set [25] was greater than 500 h in each case. Further, the Cmax in data set [29] (24 h) is 382 nM.
Take `COC(=O)N[C@H](C(=O)N[C@@H](Cc1ccccc1)[C@H](CN(Cc1ccc(-c2ccccn2)cc1)NC(=O)[C@@H](NC(=O)OC)C(C)(C)C)OC(=O)OC(OC(=O)[C@H](C(C)C)N(C)C)C(C)C)C(C)(C)C` (stereo in doubt; 5h): the AUClast in data set [1] stood at 11.628 µM·h. For the same molecule, the Ratio in data set [2] is given as 2.57; in data set [5] it was 42.1; in data set [6], 22.7; in data set [10], 0.29; in data set [14], 10.81; in data set [15] it was 0.14. Also, the Ratio in [17] was found to be 2.7; in data set [18], 11.8; in data set [20] it was 10.8; in [30], 3.38. Moreover, the results for the solubility in data set [3] (buffer) and in [22] (buffer) were 160 µg/mL (≈ 169 µM) and greater than 1850 µg/mL, respectively. Besides, the Tmax in [7] (po, 24 h) stood at 0.5 h; in [28], 3 h. For the same molecule, the AUC(0-t) at 24 h in [8] came to 64.6 µM·h. The t1/2 worked out at 334.3 h in [16] and 376.3 h in data set [25]. Also, the figures for the Cmax in data set [24] and in [29] (24 h) were 3580 nM and 1880 nM, respectively.

The values above are taken from ChEMBL document CHEMBL5137093, “Improving Drug Delivery While Tailoring Prodrug Activation to Modulate Cmax and Cmin by Optimization of (Carbonyl)oxyalkyl Linker-Based Prodrugs of Atazanavir” (J Med Chem, 2022).
